In publication PMC11195807, “Development of a multi-targeted chemotherapeutic approach based on G-quadruplex stabilisation and carbonic anhydrase inhibition” (Journal of Enzyme Inhibition and Medicinal Chemistry, 2024):
Where “and” joins values, the source holds several entries; their conditions need not be identical. Equal values may be shown once.

Experiments:
hCA II = target: T1, hCA II (Homo sapiens, UniProt P00918); assay: stopped-flow CO2 hydrase assay, hCA II; format: biochemical
T1 construct: made in house
Text: . The structure-activity relationship is discussed separately for the two compound subsets. Another code pattern is included for the MTDLs in Table 1, which indicates the derivative CAI type (sulphonamide, S or coumarin, C) and the number of atoms in the spacers connecting either berberine and the triazole (carbon atoms) or the triazole and the benzenesulfonamide/coumarin scaffolds (carbon or oxygen atoms).
(§1) An Applied Photophysics stopped-flow instrument has been used for assaying the CA-catalysed CO2 hydration activity, as reported earlier. The enzyme concentrations were in the range 5–12 nM. All hCA isoforms were recombinant proteins, being obtained in-house as reported earlier.

hCA I = target: T2, hCA I (Homo sapiens, UniProt P00915); assay: stopped-flow CO2 hydrase assay, hCA I; format: biochemical
T2 construct: made in house
Description: as §1

hCA IX = target: T3, hCA IX (Homo sapiens, UniProt Q16790); assay: stopped-flow CO2 hydrase assay, hCA IX; format: biochemical; details: for Selectivity index (SI) I/IX: hCA IX over hCA I; for Selectivity index (SI) II/IX: hCA IX over hCA II; for Ki: mean ± SEM of three assays
T3 construct: made in house
Text: (§2) An Applied Photophysics stopped-flow instrument has been used for assaying the CA-catalysed CO2 hydration activity, as reported earlier. […] All hCA isoforms were recombinant proteins, being obtained in-house as reported earlier.

Hairpin = assay: CD melting experiments, hairpin DNA duplex; details: 2 molar equiv compound, T1/2 of DNA alone 66.0 °C
c-Kit1 = assay: CD melting experiments, c-Kit1 GQ; format: binding; details: for ΔT1/2 c-Kit1: 2 molar equiv compound, T1/2 of DNA alone 55.0 °C; for ΔΔT1/2 c-Kit1: ΔT1/2 of compound minus ΔT1/2 of berberine, 2 molar equiv
Text: (§3) The 21 synthesised MTDLs were screened for their ability to bind to and stabilise DNA GQ-forming sequences, compared to berberine, by CD experiments. Indeed, circular dichroism has shown to be outstandingly useful and informative for noncanonical nucleic acid secondary structures. For this purpose, a G-rich 23-nucleotide truncation (23-nt) of the human telomeric sequence (Tel23) and two G-rich motifs from the promoter regions of c-KIT (c-Kit1) and c-MYC (c-Myc) oncogenes were employed. First, the overall topology adopted by each DNA sequence in K^+-containing buffer was verified by CD spectra. […] GQ conformation (Figure S1, Supporting Information). On the other hand, c-Kit1 and c-Myc sequences adopted a parallel GQ conformation, showing a distinctive positive band at around 260 nm and a negative one at ∼240 nm in their CD spectra (Figures S2 and S3, Supporting Information).
(§4) Afterwards, the GQ-stabilising properties of the molecules were assessed by CD melting experiments, measuring the differences in the apparent melting temperatures of the DNA in the presence and absence of compounds (ΔT1/2) (Figures S4–S6 and Table S2, Supporting Information). […] This could be explained by considering the higher accessibility of the external G-tetrads in the case of parallel GQs compared to the hybrid one[52], which would allow the additional CAI moiety of conjugated compounds to be better accommodated in the binding site. […] . […] .

hCA XII = target: T4, hCA XII (Homo sapiens, UniProt O43570); assay: stopped-flow CO2 hydrase assay, hCA XII; format: biochemical; details: for Selectivity index (SI) I/XII: hCA XII over hCA I; for Selectivity index (SI) II/XII: hCA XII over hCA II; for Ki: mean ± SEM of three assays
T4 construct: made in house
Text: as §2

c-Myc = assay: CD melting experiments, c-Myc GQ; format: binding; details: for ΔΔT1/2 c-Myc: ΔT1/2 of compound minus ΔT1/2 of berberine, 1 molar equiv; for ΔT1/2 c-Myc: 1 molar equiv compound, T1/2 of DNA alone 70.0 °C
Text: as §3, §4

Tel23 = assay: CD melting experiments, Tel23 GQ; format: binding, human; details: for ΔT1/2 Tel23: 2 molar equiv compound, T1/2 of DNA alone 53.5 °C; for ΔΔT1/2 Tel23: ΔT1/2 of compound minus ΔT1/2 of berberine, 2 molar equiv
Text: as §3, §4

[1] = sulphonamides, inhibitor-enzyme incubation 15 min, mean ± SEM of three assays
[2] = sulphonamides, inhibitor-enzyme incubation 15 min
[3] = coumarins, inhibitor-enzyme incubation 6 h

T2 sequence (P00915 whole entry): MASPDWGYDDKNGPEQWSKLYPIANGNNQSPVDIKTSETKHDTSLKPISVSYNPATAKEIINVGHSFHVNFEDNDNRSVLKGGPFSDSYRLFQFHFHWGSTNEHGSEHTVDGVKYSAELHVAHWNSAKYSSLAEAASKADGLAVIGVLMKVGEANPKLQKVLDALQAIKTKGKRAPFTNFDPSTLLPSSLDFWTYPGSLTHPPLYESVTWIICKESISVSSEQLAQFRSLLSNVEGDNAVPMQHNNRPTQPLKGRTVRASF
T4 sequence (O43570 25-354): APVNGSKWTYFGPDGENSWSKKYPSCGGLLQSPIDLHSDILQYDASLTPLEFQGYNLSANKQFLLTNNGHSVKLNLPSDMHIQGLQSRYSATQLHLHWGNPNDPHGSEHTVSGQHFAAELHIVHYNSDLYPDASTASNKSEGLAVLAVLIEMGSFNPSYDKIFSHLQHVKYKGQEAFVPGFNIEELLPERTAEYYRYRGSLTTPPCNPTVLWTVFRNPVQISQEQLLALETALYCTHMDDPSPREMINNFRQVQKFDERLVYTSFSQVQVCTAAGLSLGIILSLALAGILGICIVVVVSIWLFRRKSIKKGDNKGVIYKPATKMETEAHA

Row | Structure (SMILES) | Ki (hCA II; [1]) | Ki (hCA I; [1]) [nM] | Selectivity index (SI) I/IX (hCA IX) | Selectivity index (SI) II/IX (hCA IX) | Ki (hCA IX; [2]) [nM] | ΔT1/2 Hairpin (Hairpin) | ΔT1/2 c-Kit1 (c-Kit1) [°C] | ΔΔT1/2 c-Kit1 (c-Kit1) [°C] | Selectivity index (SI) I/XII (hCA XII) | Selectivity index (SI) II/XII (hCA XII) | Ki (hCA XII; [2]) [nM] | ΔΔT1/2 c-Myc (c-Myc) [°C] | ΔT1/2 Tel23 (Tel23) [°C] | ΔΔT1/2 Tel23 (Tel23) [°C] | ΔT1/2 c-Myc (c-Myc) [°C] | Ki (hCA II; [3]) [nM] | Ki (hCA I; [3]) [nM] | Ki (hCA IX; [3]) [nM] | Ki (hCA XII; [3]) [nM] | further results
1 | COc1ccc2cc3[n+](cc2c1OCc1cn(-c2cccc(S(N)(=O)=O)c2)nn1)CCc1cc2c(cc1-3)OCO2 [Compound 40, 10-Methoxy-9-((1–(3-sulfamoylphenyl)-1H-1,2,3-triazol-4-yl)methoxy)-5,6-dihydro-[1,3]dioxolo[4,5-g]isoquinolino[3,2-a]isoquinolin-7-ium hexafluorophosphate] | 90.1 ± 5.6 nM | 3670 ± 22 | 941.1 | 23.1 | 3.9 ± 0.2 | +0.2 °C | 16.0 | 3.0 | 148.0 | 3.6 | 24.8 ± 1.3 | >13.0 | 5.5 | −4.0 | – | – | – | – | – | ΔΔT1/2 c-Myc (c-Myc; listed as S-1,0m): > 13.0 °C
2 | COc1ccc2cc3[n+](cc2c1OCc1cn(-c2ccc(S(N)(=O)=O)cc2)nn1)CCc1cc2c(cc1-3)OCO2 [Compound 41, 10-Methoxy-9-((1–(4-sulfamoylphenyl)-1H-1,2,3-triazol-4-yl)methoxy)-5,6-dihydro-[1,3]dioxolo[4,5-g]isoquinolino[3,2-a]isoquinolin-7-ium hexafluorophosphate] | 22.9 ± 1.4 nM | 829 ± 50.3 | 307.1 | 8.5 | 2.7 ± 0.2 | +2.5 °C | 15.0 | 2.0 | 135.9 | 3.8 | 6.1 ± 0.3 | 2.5 | 5.5 | −4.0 | 14.5 | – | – | – | – | –
3 | COc1ccc2cc3[n+](cc2c1OCc1cn(CCCOc2ccc4ccc(=O)oc4c2)nn1)CCc1cc2c(cc1-3)OCO2 [Compound 42, 10-Methoxy-9-((1–(3-((2-oxo-2H-chromen-7-yl)oxy)propyl)-1H-1,2,3-triazol-4-yl)methoxy)-5,6-dihydro-[1,3]dioxolo[4,5-g]isoquinolino[3,2-a]isoquinolin-7-ium hexafluorophosphate] | – | – | > 284.9 | > 284.9 | – | +0.5 °C | 17.0 | 4.0 | > 980.4 | > 980.4 | – | 4.0 | 10.5 | 1.0 | 16.0 | > 100000 | > 100000 | 35.1 ± 2.8 | 10.2 ± 0.8 | –
4 | COc1ccc2cc3[n+](cc2c1OCc1cn(CCCCOc2ccc4ccc(=O)oc4c2)nn1)CCc1cc2c(cc1-3)OCO2 [Compound 43, 10-Methoxy-9-((1–(4-((2-oxo-2H-chromen-7-yl)oxy)butyl)-1H-1,2,3-triazol-4-yl)methoxy)-5,6-dihydro-[1,3]dioxolo[4,5-g]isoquinolino[3,2-a]isoquinolin-7-ium hexafluorophosphate] | – | – | > 392.2 | > 392.2 | – | -0.5 °C | 16.5 | 3.5 | > 2381 | > 2381 | – | 2.0 | 7.0 | −2.5 | 14.0 | > 100000 | > 100000 | 25.5 ± 1.5 | 4.2 ± 0.3 | –
5 | COc1ccc2cc3[n+](cc2c1OCc1cn(CCCCCOc2ccc4ccc(=O)oc4c2)nn1)CCc1cc2c(cc1-3)OCO2 [Compound 44, 10-Methoxy-9-((1–(5-((2-oxo-2H-chromen-7-yl)oxy)pentyl)-1H-1,2,3-triazol-4-yl)methoxy)-5,6-dihydro-[1,3]dioxolo[4,5-g]isoquinolino[3,2-a]isoquinolin-7-ium hexafluorophosphate] | – | – | > 1041 | > 1041 | – | +1.0 °C | 17.5 | 4.5 | > 689.7 | > 689.7 | – | >13.0 | 7.5 | −2.0 | – | > 100000 | > 100000 | 9.6 ± 0.5 | 14.5 ± 0.9 | ΔΔT1/2 c-Myc (c-Myc; listed as C-1,6): > 13.0 °C
6 | COc1ccc2cc3[n+](cc2c1OCc1cn(-c2ccc4c(C)cc(=O)oc4c2)nn1)CCc1cc2c(cc1-3)OCO2 [Compound 45, 10-Methoxy-9-((1–(4-methyl-2-oxo-2H-chromen-7-yl)-1H-1,2,3-triazol-4-yl)methoxy)-5,6-dihydro-[1,3]dioxolo[4,5-g]isoquinolino[3,2-a]isoquinolin-7-ium hexafluorophosphate] | – | – | > 194.2 | > 194.2 | – | +2.5 °C | 16.5 | 3.5 | > 1852 | > 1852 | – | >13.0 | 7.0 | −2.5 | – | > 100000 | > 100000 | 51.5 ± 3.6 | 5.4 ± 0.3 | ΔΔT1/2 c-Myc (c-Myc; listed as C-1,0c): > 13.0 °C
7 | COc1ccc2cc3[n+](cc2c1OCCCS(N)(=O)=O)CCc1cc2c(cc1-3)OCO2 [Compound 47, 10-methoxy-9–(3-sulfamoylpropoxy)-5,6-dihydro-[1,3]dioxolo[4,5-g]isoquinolino[3,2-a]isoquinolin-7-ium hexafluorophosphate] | 21.5 nM and 22.1 nM | 75.1 ± 5.4 | 4.2 | 1.2 | 17.8 ± 0.9 | +2.0 °C | 15.5 | 2.5 | 2.1 | 0.6 | 35.9 ± 2.1 | 0.5 | 6.5 | −3.0 | 12.5 | – | – | – | – | –
